Assay results: ChEMBL document CHEMBL1150985, “Macrolide-type motilin receptor agonists: Acid-stable 12-O-methyl-8,9-anhydroerythromycin A 6,9-hemiacetals” (Bioorg Med Chem Lett, 1995)
pEC50, pIC50: −log10 of the molar value. Converted amounts (≈) assume the structure as drawn.

Legend:
[1] = system: Klebsiella pneumoniae; test: Tested for the minimum inhibitory concentration by agar dilution method against Klebsiella pneumoniae IFO 3512; assay type: functional
[2] = system: Bacillus subtilis; test: Compound was tested for the minimum inhibitory concentration by agar dilution method against Bacillus subtilis ATCC 6633; assay type: functional
[3] = system: Staphylococcus aureus; test: Tested for the minimum inhibitory concentration by agar dilution method against Staphylococcus aureus 209P; assay type: functional
[4] = molecular target: T1, Motilin receptor (Homo sapiens, UniProt O43193); test: Compound was tested for in vitro motilin receptor binding affinity after treatment with hydrochloric acid solution (pH 2.5)
T1 sequence (O43193 whole entry): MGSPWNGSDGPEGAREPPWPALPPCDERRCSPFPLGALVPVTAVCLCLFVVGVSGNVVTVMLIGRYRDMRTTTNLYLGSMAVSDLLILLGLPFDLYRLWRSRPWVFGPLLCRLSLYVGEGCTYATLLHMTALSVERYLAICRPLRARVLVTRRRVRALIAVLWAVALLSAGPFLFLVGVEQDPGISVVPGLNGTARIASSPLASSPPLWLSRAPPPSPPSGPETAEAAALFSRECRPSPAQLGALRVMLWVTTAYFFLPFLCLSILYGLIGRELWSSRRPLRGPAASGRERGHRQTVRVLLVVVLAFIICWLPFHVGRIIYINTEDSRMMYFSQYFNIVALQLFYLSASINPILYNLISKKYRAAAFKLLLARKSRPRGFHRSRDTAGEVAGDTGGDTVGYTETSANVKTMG

[5] = system: Escherichia coli; test: Tested for the minimum inhibitory concentration by agar dilution method against Escherichia coli NIHJ JC-2; assay type: functional
[6] = species: Oryctolagus cuniculus; test: Compound was tested for the in vitro smooth muscle contractile activity; assay type: functional; conditions: Muscle tissue
[7] = molecular target: T1, Motilin receptor; test: Compound was tested for in vitro motilin receptor binding affinity
[8] = system: Streptococcus pneumoniae; test: Tested for the minimum inhibitory concentration by agar dilution method against Streptococcus pneumoniae No. 12; assay type: functional
[9] = system: Canis familiaris; test: Motor index (MI) was reported in vivo for smooth muscle contractile activity after i.v. administration of the compound; assay type: functional, Canis lupus familiaris, Muscle tissue
[10] = system: Canis familiaris; test: Motor index (MI) was reported in vivo for smooth muscle contractile activity after i.g. administration of the compound; assay type: functional, Canis lupus familiaris, Muscle tissue

Row | Structure (SMILES) | MIC [1] [µM] | MIC [2] [µM] | MIC [3] [µM] | pIC50 [4] | MIC [5] [µM] | pEC50 [6] | pIC50 [7] | MIC [8] [µM] | MI100 [9] [µg/kg] | MI100 [10] [µg/kg]
1 | CCC1OC(=O)C(C)C(O[C@H]2C[C@@](C)(OC)[C@@H](O)C(C)O2)C(C)[C@@H](OC2OC(C)CC(N(C)C)[C@H]2O)[C@]2(C)CC(C)=C(O2)[C@H](C)[C@@H](O)[C@]1(C)OC (stereo not given in full) | 200 (≈ 146 µg/mL) | 6.3 (≈ 4.6 µg/mL) | 25 (≈ 18.2 µg/mL) | 7.40 | > 200 | 7.71 | 8.12 | 1.6 (≈ 1.17 µg/mL) | – | –
2 | CCC1OC(=O)C(C)C(O[C@H]2C[C@@](C)(OC)[C@@H](O)C(C)O2)C(C)[C@@H](OC2OC(C)CC(N(C)CC)[C@H]2O)[C@]2(C)CC(C)=C(O2)[C@H](C)[C@@H](O)[C@]1(C)OC (stereo not given in full) | > 200 | > 200 | > 200 | 8.08 | > 200 | 7.64 | 8.33 | 50 (≈ 37.2 µg/mL) | – | –
3 | CCC1OC(=O)C(C)C(O[C@H]2C[C@@](C)(OC)[C@@H](O)C(C)O2)C(C)[C@@H](OC2OC(C)CC(N(C)C)[C@H]2O)[C@]2(C)CC(C)C3(O[C@]1(C)[C@H](O)[C@H]3C)O2 (stereo not given in full) | – | – | – | 6.77 | – | < 5.00 | 6.81 | – | >70 | –
4 | CCC1OC(=O)C(C)C(O[C@H]2C[C@@](C)(OC)[C@@H](O)C(C)O2)C(C)[C@@H](OC2OC(C)CC(N(C)C(C)C)[C@H]2O)[C@]2(C)CC(C)=C(O2)[C@H](C)[C@@H](O)[C@]1(C)OC (stereo not given in full) | > 200 | > 200 | > 200 | 7.82 | > 200 | 7.89 | 8.16 | 200 (≈ 152 µg/mL) | 0.44 | 1.2
5 | CC[C@H]1OC(=O)[C@H](C)[C@@H](O[C@H]2C[C@@](C)(OC)[C@@H](O)[C@H](C)O2)[C@H](C)[C@@H](OC2O[C@H](C)C[C@H](N(C)C)[C@H]2O)C2(C)CC(C)=C(O2)[C@H](C)[C@@H](O)[C@]1(C)O (single isomer, unassigned) | – | – | – | 6.65 | – | – | 8.47 | – | 1 | –
6 | CC[C@H]1OC(=O)[C@H](C)[C@@H](O[C@H]2C[C@@](C)(OC)[C@@H](O)[C@H](C)O2)[C@H](C)[C@@H](OC2O[C@H](C)C[C@H](N(C)C)[C@H]2O)C(C)(O)C[C@@H](C)C(=O)[C@H](C)[C@@H](O)[C@]1(C)O (single isomer, unassigned) [ERYTHROMYCIN] | 6.3 (≈ 4.62 µg/mL) | 0.39 (≈ 0.286 µg/mL) | 0.39 (≈ 0.286 µg/mL) | – | 100 (≈ 73.4 µg/mL) | 6.50 | – | 0.1 (≈ 0.0734 µg/mL) | 32.3 | –
